How the values were obtained:
CDK4/CycD1 = CDK4/CycD1 (Homo sapiens, UniProt P11802); test: 33PanQinase protein kinase activity assay; assay type: biochemical; conditions: recombinant kinase, 1 µM ATP
MET = MET (Homo sapiens, UniProt P08581); test: 33PanQinase protein kinase activity assay; assay type: biochemical; conditions: recombinant kinase, 1 µM ATP
Description: (§1) Recombinant protein kinases.

COT = COT (Homo sapiens, UniProt P41279); test: 33PanQinase protein kinase activity assay; assay type: biochemical; conditions: recombinant kinase, 1 µM ATP
Description: as §1

ERBB2 = ERBB2 (Homo sapiens, UniProt P04626); test: 33PanQinase protein kinase activity assay; assay type: biochemical; conditions: recombinant kinase, 1 µM ATP
Description: as §1

B-RAF-VE = B-RAF-VE (Homo sapiens, UniProt P15056, V600E); test: 33PanQinase protein kinase activity assay; assay type: biochemical; conditions: recombinant kinase, 1 µM ATP
Chain of B-RAF-VE (P15056 whole entry V600E): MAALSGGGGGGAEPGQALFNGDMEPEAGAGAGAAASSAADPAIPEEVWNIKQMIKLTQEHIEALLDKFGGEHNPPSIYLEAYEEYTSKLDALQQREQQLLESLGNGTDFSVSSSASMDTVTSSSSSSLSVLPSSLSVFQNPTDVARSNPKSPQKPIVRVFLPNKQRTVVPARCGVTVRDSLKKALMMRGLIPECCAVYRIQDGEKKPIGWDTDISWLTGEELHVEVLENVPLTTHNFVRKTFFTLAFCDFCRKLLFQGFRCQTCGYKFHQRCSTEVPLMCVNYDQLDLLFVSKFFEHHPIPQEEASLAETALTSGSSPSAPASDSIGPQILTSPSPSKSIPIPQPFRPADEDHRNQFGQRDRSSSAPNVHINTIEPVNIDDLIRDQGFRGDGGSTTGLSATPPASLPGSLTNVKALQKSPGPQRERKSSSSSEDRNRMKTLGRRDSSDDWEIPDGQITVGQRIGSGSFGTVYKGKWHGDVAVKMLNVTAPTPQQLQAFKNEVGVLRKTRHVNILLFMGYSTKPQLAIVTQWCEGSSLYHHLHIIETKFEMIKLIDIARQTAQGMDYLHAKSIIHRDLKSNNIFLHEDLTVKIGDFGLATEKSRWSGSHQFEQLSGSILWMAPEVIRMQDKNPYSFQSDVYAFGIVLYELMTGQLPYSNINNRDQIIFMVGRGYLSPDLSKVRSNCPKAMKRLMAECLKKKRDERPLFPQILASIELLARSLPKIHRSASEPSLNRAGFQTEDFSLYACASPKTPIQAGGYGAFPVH
Description: as §1

FLT3 = FLT3 (Homo sapiens, UniProt P36888); test: 33PanQinase protein kinase activity assay; assay type: biochemical; conditions: recombinant kinase, 1 µM ATP
Chain of FLT3 (P36888 27-993): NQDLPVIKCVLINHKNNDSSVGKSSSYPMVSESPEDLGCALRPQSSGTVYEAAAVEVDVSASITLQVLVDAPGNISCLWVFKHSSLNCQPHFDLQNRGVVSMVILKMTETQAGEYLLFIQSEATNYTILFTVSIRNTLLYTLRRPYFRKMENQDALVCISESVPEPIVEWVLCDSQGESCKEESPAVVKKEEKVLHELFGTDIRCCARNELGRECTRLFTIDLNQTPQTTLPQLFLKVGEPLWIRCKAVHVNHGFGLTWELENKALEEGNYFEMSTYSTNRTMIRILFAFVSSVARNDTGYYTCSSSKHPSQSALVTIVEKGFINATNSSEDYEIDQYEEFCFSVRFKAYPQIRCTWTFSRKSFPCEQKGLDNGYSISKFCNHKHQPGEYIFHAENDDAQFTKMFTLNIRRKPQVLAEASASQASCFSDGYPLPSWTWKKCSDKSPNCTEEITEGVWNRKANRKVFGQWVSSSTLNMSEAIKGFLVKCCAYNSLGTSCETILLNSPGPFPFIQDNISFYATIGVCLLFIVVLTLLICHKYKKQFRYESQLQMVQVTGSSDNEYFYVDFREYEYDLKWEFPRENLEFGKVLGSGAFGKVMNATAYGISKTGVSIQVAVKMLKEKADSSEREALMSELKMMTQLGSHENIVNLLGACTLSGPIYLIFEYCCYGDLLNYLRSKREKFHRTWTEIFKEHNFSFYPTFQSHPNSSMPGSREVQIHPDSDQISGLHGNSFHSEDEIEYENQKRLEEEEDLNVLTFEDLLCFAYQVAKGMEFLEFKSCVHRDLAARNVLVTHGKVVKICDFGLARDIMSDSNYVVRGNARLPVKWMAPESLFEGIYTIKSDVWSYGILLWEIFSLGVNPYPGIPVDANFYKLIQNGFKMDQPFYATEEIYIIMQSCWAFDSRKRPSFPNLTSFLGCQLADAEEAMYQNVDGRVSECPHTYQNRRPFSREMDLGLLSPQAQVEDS
Description: as §1

VEGF-R3 = VEGF-R3 (Homo sapiens, UniProt P35916); test: 33PanQinase protein kinase activity assay; assay type: biochemical; conditions: recombinant kinase, 1 µM ATP
Chain of VEGF-R3 (P35916 25-1363): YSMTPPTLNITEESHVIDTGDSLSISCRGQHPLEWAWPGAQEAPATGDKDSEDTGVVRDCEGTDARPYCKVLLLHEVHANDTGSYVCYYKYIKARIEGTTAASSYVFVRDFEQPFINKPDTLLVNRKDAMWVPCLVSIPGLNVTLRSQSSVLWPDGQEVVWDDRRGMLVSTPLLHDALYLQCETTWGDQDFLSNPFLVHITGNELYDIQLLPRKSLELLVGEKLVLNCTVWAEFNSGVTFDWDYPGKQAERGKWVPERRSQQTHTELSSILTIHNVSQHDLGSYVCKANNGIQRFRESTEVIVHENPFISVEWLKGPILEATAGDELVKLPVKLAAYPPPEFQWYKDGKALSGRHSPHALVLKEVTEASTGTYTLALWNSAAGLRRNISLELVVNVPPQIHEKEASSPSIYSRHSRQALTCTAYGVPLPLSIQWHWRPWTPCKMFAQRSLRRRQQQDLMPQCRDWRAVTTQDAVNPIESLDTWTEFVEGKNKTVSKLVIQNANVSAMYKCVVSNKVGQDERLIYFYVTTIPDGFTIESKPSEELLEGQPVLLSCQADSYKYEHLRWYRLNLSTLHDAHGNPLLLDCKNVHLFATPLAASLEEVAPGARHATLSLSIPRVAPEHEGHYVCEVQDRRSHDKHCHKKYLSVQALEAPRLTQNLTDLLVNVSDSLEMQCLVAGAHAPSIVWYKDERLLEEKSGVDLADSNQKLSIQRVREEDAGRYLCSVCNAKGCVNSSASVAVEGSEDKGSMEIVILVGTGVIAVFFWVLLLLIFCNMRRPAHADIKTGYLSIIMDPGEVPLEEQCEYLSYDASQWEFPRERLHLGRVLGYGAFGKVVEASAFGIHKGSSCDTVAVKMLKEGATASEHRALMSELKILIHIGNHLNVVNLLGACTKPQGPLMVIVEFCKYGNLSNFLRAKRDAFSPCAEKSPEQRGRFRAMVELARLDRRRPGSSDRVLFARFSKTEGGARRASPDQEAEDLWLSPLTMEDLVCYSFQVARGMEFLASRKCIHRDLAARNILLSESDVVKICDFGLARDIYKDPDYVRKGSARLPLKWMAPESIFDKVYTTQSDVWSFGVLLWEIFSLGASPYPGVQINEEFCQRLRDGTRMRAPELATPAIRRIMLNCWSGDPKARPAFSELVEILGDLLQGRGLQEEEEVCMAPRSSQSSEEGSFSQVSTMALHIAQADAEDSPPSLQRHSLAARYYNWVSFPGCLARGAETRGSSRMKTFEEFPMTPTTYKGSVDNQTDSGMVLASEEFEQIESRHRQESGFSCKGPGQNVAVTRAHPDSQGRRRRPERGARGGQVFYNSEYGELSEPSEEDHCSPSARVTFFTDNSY
Description: as §1

SAK = SAK (Homo sapiens, UniProt O00444); test: 33PanQinase protein kinase activity assay; assay type: biochemical; conditions: recombinant kinase, 1 µM ATP
Chain of SAK (O00444 whole entry): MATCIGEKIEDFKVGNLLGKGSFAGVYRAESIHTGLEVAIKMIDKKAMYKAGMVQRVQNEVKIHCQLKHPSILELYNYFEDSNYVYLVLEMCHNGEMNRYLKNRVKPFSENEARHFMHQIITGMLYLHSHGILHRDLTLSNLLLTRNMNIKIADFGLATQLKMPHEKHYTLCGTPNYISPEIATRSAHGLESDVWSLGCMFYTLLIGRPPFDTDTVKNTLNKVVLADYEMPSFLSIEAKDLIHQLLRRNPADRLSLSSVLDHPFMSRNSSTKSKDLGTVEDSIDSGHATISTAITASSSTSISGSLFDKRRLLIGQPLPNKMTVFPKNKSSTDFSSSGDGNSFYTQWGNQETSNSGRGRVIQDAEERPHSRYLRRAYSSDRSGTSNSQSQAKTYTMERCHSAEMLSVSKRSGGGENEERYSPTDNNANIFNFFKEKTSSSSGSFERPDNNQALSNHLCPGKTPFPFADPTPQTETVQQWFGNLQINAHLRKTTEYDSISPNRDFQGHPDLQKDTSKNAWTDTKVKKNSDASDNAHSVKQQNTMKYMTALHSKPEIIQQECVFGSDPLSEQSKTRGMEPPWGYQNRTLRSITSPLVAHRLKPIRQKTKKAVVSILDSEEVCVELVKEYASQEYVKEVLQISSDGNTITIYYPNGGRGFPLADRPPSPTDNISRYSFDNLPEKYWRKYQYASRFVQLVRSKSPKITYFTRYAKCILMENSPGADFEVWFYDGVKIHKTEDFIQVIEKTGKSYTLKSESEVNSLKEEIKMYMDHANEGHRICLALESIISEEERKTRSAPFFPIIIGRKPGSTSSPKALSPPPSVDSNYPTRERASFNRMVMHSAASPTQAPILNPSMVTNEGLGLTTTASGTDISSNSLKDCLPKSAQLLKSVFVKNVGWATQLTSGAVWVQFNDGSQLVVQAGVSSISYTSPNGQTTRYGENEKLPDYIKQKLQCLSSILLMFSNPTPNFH
Description: as §1

CK2a1 = CK2a1 (Homo sapiens, UniProt P68400); test: 33PanQinase protein kinase activity assay; assay type: biochemical; conditions: recombinant kinase, 1 µM ATP
Description: as §1

PLK1 = PLK1 (Homo sapiens, UniProt P53350); test: 33PanQinase protein kinase activity assay; assay type: biochemical; conditions: recombinant kinase, 1 µM ATP
Description: as §1

Aurora-B = Aurora-B (Homo sapiens, UniProt Q96GD4); test: 33PanQinase protein kinase activity assay; assay type: biochemical; conditions: recombinant kinase, 1 µM ATP
CDK2/CycA = CDK2/CycA (Homo sapiens, UniProt P24941); test: 33PanQinase protein kinase activity assay; assay type: biochemical; conditions: recombinant kinase, 1 µM ATP
IGF1R = IGF1R (Homo sapiens, UniProt P08069); test: 33PanQinase protein kinase activity assay; assay type: biochemical; conditions: recombinant kinase, 1 µM ATP
Protocol: (§2) Protein kinase Assay. A proprietary protein kinase assay (^33PanQinase® Activity Assay) was used for measuring the kinase activity of the 24 protein kinases. All protein kinase assays were performed in 96-well FlashPlates™ (Perkin Elmer/NEN, Boston, MA, USA) in a 50 µL reaction volumes. Assays for all enzymes were performed in a solution containing 60 mM HEPES-NaOH, pH 7.5, 3 mM MgCl2, 3 mM MnCl2, 3 µM Na-orthovanadate, 1.2 mM DTT, 50 µg/mL PEG20000, 1 µM [γ-33P]-ATP (approx. 5 × 10^5 cpm per well), recombinant protein kinase (50–400 ng). Depending upon the kinase being assayed, appropriate substrates were used and were as follows (substrates shown in parentheses): AKT1 (GSK3/14-27), ARK5 (autophosphorylation), Aurora-A, Aurora-B (Tetra(LRRWSLG)), B-Raf-VE (MEK1 KM), CDK2/CycA (histone H1), CDK4/CycD1 (Rb-CTF), CK2-A1 (Casein), EGF-R, EPHB4, ERBB2, FAK, IGF1-R, SRC, VEGF-R2, VEGF-R3 (poly(Glu,Tyr) 4:1), FLT3, INS-R, MET, PDGFRβ (poly(Ala,Glu,Lys,Tyr) 6:2:5:1), PLK1 (Casein), SAK (autophosphorylation), TIE2 (poly(Glu,Tyr) 4:1), COT (autophosphorylation). The IC50 values were measured by testing 10 concentrations of compounds by single sampling. The final DMSO concentration in the assay was 1% (v/v). The data were fitted using the 4-parameter logistic fit option of GraphPad Prism 5.

FAK = FAK (Homo sapiens, UniProt Q05397); test: 33PanQinase protein kinase activity assay; assay type: biochemical; conditions: recombinant kinase, 1 µM ATP
Protocol: Recombinant protein kinases. The inhibitory profile of compounds was determined using the following 24 protein kinases (GenBankAcc.No. available on http://www.proqinase.com/pages/science [29]): AKT1, ARK5, Aurora-A, Aurora-B, B-Raf-VE, CDK2/CycA, CDK4/CycD1, CK2-A1, EGF-R, EPHB4, ERBB2, FAK, IGF1-R, SRC, VEGF-R2, VEGF-R3, FLT3, INS-R, MET, PDGFRβ, PLK1, SAK, TIE2 and COT. All protein kinases were expressed using human cDNAs in Sf9 insect cells as recombinat GST-fusion proteins or His-tagged proteins by means of the baculovirus expression system. Kinases were purified by affinity chromatography using either GSH-agarose (Sigma) or Ni-NTA-agarose (Qiagen). The purity and identity of each kinase was determined by SDS-PAGE/silver staining and western blot analysis using specific antibodies.
Protein kinase Assay. A proprietary protein kinase assay (^33PanQinase® Activity Assay) was used for measuring the kinase activity of the 24 protein kinases. All protein kinase assays were performed in 96-well FlashPlates™ (Perkin Elmer/NEN, Boston, MA, USA) in a 50 µL reaction volumes. […] The IC50 values were measured by testing 10 concentrations of compounds by single sampling. […]

TIE2 = TIE2 (Homo sapiens, UniProt Q02763); test: 33PanQinase protein kinase activity assay; assay type: biochemical; conditions: recombinant kinase, 1 µM ATP
Protocol: (§3) The inhibitory profile of compounds was determined using the following 24 protein kinases (GenBankAcc.No. available on http://www.proqinase.com/pages/science [29]): AKT1, ARK5, Aurora-A, Aurora-B, B-Raf-VE, CDK2/CycA, CDK4/CycD1, CK2-A1, EGF-R, EPHB4, ERBB2, FAK, IGF1-R, SRC, VEGF-R2, VEGF-R3, FLT3, INS-R, MET, PDGFRβ, PLK1, SAK, TIE2 and COT. All protein kinases were expressed using human cDNAs in Sf9 insect cells as recombinat GST-fusion proteins or His-tagged proteins by means of the baculovirus expression system. Kinases were purified by affinity chromatography using either GSH-agarose (Sigma) or Ni-NTA-agarose (Qiagen). The purity and identity of each kinase was determined by SDS-PAGE/silver staining and western blot analysis using specific antibodies.
(§4) Protein kinase Assay. A proprietary protein kinase assay (^33PanQinase® Activity Assay) was used for measuring the kinase activity of the 24 protein kinases. All protein kinase assays were performed in 96-well FlashPlates™ (Perkin Elmer/NEN, Boston, MA, USA) in a 50 µL reaction volumes. Assays for all enzymes were performed in a solution containing 60 mM HEPES-NaOH, pH 7.5, 3 mM MgCl2, 3 mM MnCl2, 3 µM Na-orthovanadate, 1.2 mM DTT, 50 µg/mL PEG20000, 1 µM [γ-33P]-ATP (approx. 5 × 10^5 cpm per well), recombinant protein kinase (50–400 ng). […] The IC50 values were measured by testing 10 concentrations of compounds by single sampling. […]

VEGF-R2 = VEGF-R2 (Homo sapiens, UniProt P35968); test: 33PanQinase protein kinase activity assay; assay type: biochemical; conditions: recombinant kinase, 1 µM ATP
Description: as §1

AKT1 = AKT1 (Homo sapiens, UniProt P31749); test: 33PanQinase protein kinase activity assay; assay type: biochemical; conditions: recombinant kinase, 1 µM ATP
Protocol: as §2

ARK5 = ARK5 (Homo sapiens, UniProt O60285); test: 33PanQinase protein kinase activity assay; assay type: biochemical; conditions: recombinant kinase, 1 µM ATP
Protocol: as §3, §4

[1] = test system: TK 10, 786-0, M 14, and MCF-7 cell lines; test: Cell viability assay (CellTiter-Glo), other cell lines; assay type: cell-based; conditions: TK 10, 786-0, M 14, MCF-7; 48 h; compared with HL-60
Protocol: In order to determine the cytotoxic profiles of compounds 5 and 8, they were evaluated in cell viability assays (Figure 7) including HL-60, a human myeloblastic leukemia cell line, as it has been shown that the proliferation and differentiation of these cells depend upon PDGFR-signalling. Cells were treated with compounds 5 and 8 and after 48 h incubation, their viability was determined. […] This is in line with the notion that HL-60 cells depend on PDGFR-signaling.
The cells were grown in RPMI 1640 Glutamax with 10% FCS, 100 µg/mL streptomycin and 100 U/mL Penicillin G and incubated in a 5% CO2 humidified atmosphere at 37 °C. For proliferation experiments, cells were seeded in 20 µL pro well into 384-well Greiner 384 CellStar® plates (Greiner Bio-One I. AG, Kremsmünster, AT). In addition to the test plates, one plate was prepared for the reference measurement at day zero. All plates were incubated for 24 h at 37 °C in a humidified atmosphere with 5% CO2. […] The viability of the cells in the day zero control plates were determined on the same day without adding any compounds. […] The luminescence signal was measured at the EnSpire® Multimode Plate Reader (PerkinElmer, Waltham, MA, USA). […] Measured raw data were converted into percent of cell growth by using the high control (0.5% DMSO v/v without compound) and the day zero control. […]

Aurora-A = Aurora-A (Homo sapiens, UniProt O14965); test: 33PanQinase protein kinase activity assay; assay type: biochemical; conditions: recombinant kinase, 1 µM ATP
Protocol: as §3, §4

EGFR = EGFR (Homo sapiens, UniProt P00533); test: biochemical
INSR = INSR (Homo sapiens, UniProt P06213); test: 33PanQinase protein kinase activity assay; assay type: biochemical; conditions: recombinant kinase, 1 µM ATP
Protocol: as §3, §4

EPHB4 = EPHB4 (Homo sapiens, UniProt P54760); test: 33PanQinase protein kinase activity assay; assay type: biochemical; conditions: recombinant kinase, 1 µM ATP
Protocol: as §2

SRC = SRC (Homo sapiens, UniProt P12931); test: 33PanQinase protein kinase activity assay; assay type: biochemical; conditions: recombinant kinase, 1 µM ATP
Protocol: as §2

PDGFRβ = PDGFRβ (Homo sapiens, UniProt P09619); test: 33PanQinase protein kinase activity assay; assay type: biochemical; conditions: recombinant kinase, 1 µM ATP
Chain of PDGFRβ (P09619 33-1106): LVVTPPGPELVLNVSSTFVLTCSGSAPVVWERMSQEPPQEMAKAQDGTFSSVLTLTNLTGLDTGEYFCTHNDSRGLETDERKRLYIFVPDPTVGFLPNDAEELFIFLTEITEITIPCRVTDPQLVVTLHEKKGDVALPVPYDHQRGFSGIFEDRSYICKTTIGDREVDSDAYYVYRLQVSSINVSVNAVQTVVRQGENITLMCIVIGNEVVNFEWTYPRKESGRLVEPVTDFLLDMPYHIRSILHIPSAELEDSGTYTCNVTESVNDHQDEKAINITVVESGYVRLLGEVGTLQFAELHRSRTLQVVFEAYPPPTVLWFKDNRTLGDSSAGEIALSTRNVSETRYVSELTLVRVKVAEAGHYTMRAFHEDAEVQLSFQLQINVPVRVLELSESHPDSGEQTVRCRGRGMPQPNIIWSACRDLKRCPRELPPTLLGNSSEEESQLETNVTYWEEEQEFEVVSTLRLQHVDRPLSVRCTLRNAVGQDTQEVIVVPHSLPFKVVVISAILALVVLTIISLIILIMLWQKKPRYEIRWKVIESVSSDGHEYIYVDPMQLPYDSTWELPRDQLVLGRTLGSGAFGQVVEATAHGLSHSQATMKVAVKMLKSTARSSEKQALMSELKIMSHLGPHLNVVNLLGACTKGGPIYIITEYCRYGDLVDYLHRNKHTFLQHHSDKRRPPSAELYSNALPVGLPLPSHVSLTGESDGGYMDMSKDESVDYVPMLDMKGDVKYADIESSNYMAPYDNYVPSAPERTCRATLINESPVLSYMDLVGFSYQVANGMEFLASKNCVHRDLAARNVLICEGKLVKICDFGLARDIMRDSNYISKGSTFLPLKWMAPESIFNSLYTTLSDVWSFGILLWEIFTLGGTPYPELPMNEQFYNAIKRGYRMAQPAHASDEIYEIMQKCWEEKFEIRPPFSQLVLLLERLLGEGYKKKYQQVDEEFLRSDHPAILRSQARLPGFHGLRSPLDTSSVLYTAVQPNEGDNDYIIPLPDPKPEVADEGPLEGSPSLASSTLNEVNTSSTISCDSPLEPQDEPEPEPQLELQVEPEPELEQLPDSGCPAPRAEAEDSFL
Protocol: as §2

HL-60 cells = test: Cell viability assay (CellTiter-Glo); assay type: cell-based; conditions: Homo sapiens, 48 h incubation
Protocol: The cells were grown in RPMI 1640 Glutamax with 10% FCS, 100 µg/mL streptomycin and 100 U/mL Penicillin G and incubated in a 5% CO2 humidified atmosphere at 37 °C. For proliferation experiments, cells were seeded in 20 µL pro well into 384-well Greiner 384 CellStar® plates (Greiner Bio-One I. AG, Kremsmünster, AT). In addition to the test plates, one plate was prepared for the reference measurement at day zero. All plates were incubated for 24 h at 37 °C in a humidified atmosphere with 5% CO2. […] The final DMSO concentration in the assay was 0.5% v/v. The viability of the cells in the day zero control plates were determined on the same day without adding any compounds. The CellTiter-Glo® Viability Assay was used to determine the viability of cells using the standard protocol for this assay (Promega Corp., Madison, WI, USA). The luminescence signal was measured at the EnSpire® Multimode Plate Reader (PerkinElmer, Waltham, MA, USA). Test plates were incubated for further 48 h and the cell viability was defined as just described. Measured raw data were converted into percent of cell growth by using the high control (0.5% DMSO v/v without compound) and the day zero control. For dose-response studies, 11 different concentrations of compounds were tested in quadruplicates. The IC50 values were calculated using the 4-parameter logistic fit option of GraphPad Prism 5.

[2] = test system: bacterial methicillin-resistant Staphylococcus (MRSA-PK); set-up: method as in PMID 22030393; conditions: cited from earlier work

Compound | IC50 (MET) [µM] | IC50 (COT) [µM] | IC50 (ERBB2) [µM] | IC50 (B-RAF-VE) [µM] | IC50 (FLT3) [µM] | IC50 (VEGF-R3) [µM] | IC50 (SAK) [µM] | IC50 (CK2a1) [µM] | IC50 (PLK1) [µM] | IC50 (Aurora-B) [µM] | cytotoxic effect on the other cells tested [1] | IC50 (PDGFRβ) [µM] | further results
3-(indole-3-yl)-4-(3,4,5-trimethoxyphenyl)-1H-pyrrole-2,5-dione [Compound 1, reference compound] | 60 | 32 | 51 | > 100 | 61 | 0.037 | 10 | > 100 | > 100 | 66 | – | – | IC50 (CDK4/CycD1): 56 µM; IC50 (CDK2/CycA): 66 µM
COc1cc(-c2nc(-c3c[nH]c4ccccc34)c[nH]c2=O)cc(OC)c1OC [Compound 5, 5-(1H-indole-3-yl)-3-(3,4,5-trimethoxyphenyl)pyrazin-2(1H)-one] | > 100 | > 100 | > 100 | > 100 | 36 | 5 | > 100 | > 100 | > 100 | > 100 | significantly less affected | 0.5 | IC50 (IGF1R): > 100 µM; IC50 (FAK): > 100 µM; IC50 (TIE2): > 100 µM; IC50 (VEGF-R2): 4 µM; IC50 (µM) VEGF-R3 (VEGF-R3): low µM range; IC50 (AKT1): > 100 µM; IC50 (ARK5): > 100 µM; IC50 (Aurora-A): > 100 µM; IC50 (EGFR): > 100 µM; IC50 (INSR): > 100 µM; IC50 (EPHB4): > 100 µM; IC50 (SRC): > 100 µM
COc1ccc(-c2nc(-c3c[nH]c4ccccc34)c[nH]c2=O)cc1OC [Compound 6, 3-(3,4-dimethoxyphenyl)-5-(1H-indol-3-yl)-1H-pyrazin-2-one] | – | – | – | – | – | – | – | – | – | – | – | 1.5 | –
COc1ccc(-c2nc(-c3c[nH]c4ccccc34)c[nH]c2=O)cc1 [Compound 7, 3-(4-methoxyphenyl)-5-(1H-indol-3-yl)-1H-pyrazin-2-one] | – | – | – | – | – | – | – | – | – | – | – | 19 | –
COc1cc(-c2nc(-c3c[nH]c4ccc(O)cc34)c[nH]c2=O)cc(OC)c1OC [Compound 8, 5-(5-hydroxy-1H-indole-3-yl)-3-(3,4,5-trimethoxyphenyl)pyrazin-2(1H)-one] | – | – | – | – | – | – | – | – | – | – | significantly less affected | 0.3 | IC50 (HL-60 cells): 30 µM
O=C1NC[C@@H](c2c[nH]c3cc(Br)ccc23)N[C@H]1c1c[nH]c2cc(Br)ccc12 [cis-3,4-dihydro hamacanthin B] | – | – | – | – | – | – | – | – | – | – | – | – | IC50 [2]: 0.016 µM

Reference: paper PMC3806475, “Marine Derived Hamacanthins as Lead for the Development of Novel PDGFRβ Protein Kinase Inhibitors” (Marine Drugs, 2013)
